Results on three compounds are retold here after paper PMC7824209, “Bioactive Bis(indole) Alkaloids from a Spongosorites sp. Sponge” (Marine Drugs, 2020).

In test [1] the target is T1, recombinant SrtA from S. aureus ATCC6538p (Staphylococcus aureus, UniProt Q2FV99).
T1 construct: made in house; host or cells: Escherichia coli
The test can be described thus: SrtA inhibition assay (fluorescence, dabcyl-LPETG-edans cleavage). Format: biochemical. The text has this:
The same bioassays were pursued with the new compounds and the known congeners, with a particular emphasis on SrtA inhibition. The rationale of SrtA inhibition is that this transpeptidase decorates the surfaces of Gram-positive bacteria with a diverse array of proteins that enable microbes to effectively interact with their environment, and it is not required for bacterial growth or viability. It is thus considered a promising target for the development of anti-virulence drugs aimed at interfering with important virulence mechanisms such as adhesion to host tissues. To assess the SrtA inhibitory activity of compounds 1–14, recombinant SrtA derived from S. aureus ATCC6538p was purified from Escherichia coli extracts using metal chelate-affinity chromatography. The enzyme activity was determined from the fluorescence intensity upon cleavage of a peptide substrate containing the LPETG motif.
Before evaluating the SrtA inhibitory activity of the test compounds, recombinant SrtA from S. aureus ATCC6538p was prepared according to methods described in a previous paper. The SrtA inhibitory activity of the test compounds was determined according to previously described methods with minor modifications. The reaction was carried out with 100 μL buffer (50 mM Tris-HCl, 5 mM CaCl2, and 150 mM NaCl, pH 7.5), 7.5 µM synthetic peptide dabcyl-LPETG-edans (AnaSpec, Inc., Fremont, CA, USA), 7.5 µM purified SrtA, and test samples at various concentrations. […] The SrtA inhibition assay was conducted at 37 °C for 1 h, and inhibition was quantified fluorometrically using a microplate reader (FLx800, BioTek Instruments, Winooski, VT, USA) at excitation and emission wavelengths of 350 and 495 nm, respectively. Berberine chloride and triphasiol were used as reference inhibitors of SrtA.

Test [2] deals with Aspergillus fumigatus HIC6094. Put plainly: Antifungal activity MIC. Format: cell-based.
The subject of test [3] is Klebsiella pneumoniae ATCC10031. The test can be described thus: Antibacterial activity MIC. Format: cell-based. The following applies: ATCC10031, read-out: Antibacterial Activity MIC, Klebsiella pneumonia.
Test [4] has as its system Salmonella enterica ATCC14028. The test can be described thus: Antibacterial activity MIC. It counts as cell-based. The following applies: ATCC14028, read-out: Antibacterial Activity MIC, Salmonella enterica.
Test [5] relates to Trichophyton rubrum NBRC9185. The test can be described thus: Antifungal activity MIC. Format: cell-based.
The next test has as its system S. aureus strain Newman. The test can be described thus: Antibacterial activity MIC. It counts as cell-based. The conditions noted are these: Staphylococcus aureus, read-out: Antibacterial Activity MIC, S. aureus.
The next test has as its system A549 cell line. The test can be described thus: MTT cytotoxicity assay. Format: cell-based. The following applies: Homo sapiens. The protocol:
(§1) An MTT assay was performed as previously described to determine the cytotoxicity against A549 and K562 cell lines. These cancer cell lines were purchased from the Korean Cell Line Bank (KCLB), Seoul, Republic of Korea.
In general terms: Tetrazolium assays rely on reduction of a dye to a coloured formazan, in cell work by metabolically active cells.

A further test concerns K562 cell line. The test can be described thus: MTT cytotoxicity assay. Format: cell-based. The following applies: Homo sapiens. The protocol: as §1
Test [6] has as its system Enterococcus faecium ATCC19434. The test can be described thus: Antibacterial activity MIC. The conditions noted are these: ATCC19434, read-out: Antibacterial Activity MIC, Enterococcus faecium. It counts as cell-based.
In test [7] the test system is Candida albicans ATCC10231. Put plainly: Antifungal activity MIC. Format: cell-based.
For test [8], the system named is Escherichia coli ATCC25922. Put plainly: Antibacterial activity MIC. Format: cell-based. The conditions noted are these: Gram-negative; for MIC: Escherichia coli, read-out: Antibacterial Activity MIC, E. coli.
The test system of test [9] is Trichophyton mentagrophytes IFM40996. The test can be described thus: Antifungal activity MIC. It counts as cell-based.
Test [10] concerns Enterococcus faecalis ATCC19433. The test can be described thus: Antibacterial activity MIC. It counts as cell-based. The conditions noted are these: ATCC19433, read-out: Antibacterial Activity MIC, Enterococcus faecalis.
Where [11] appears, read: MTT assay, A549, read-out: IC50 A549.
Setting [12] is: MTT assay, K562, read-out: IC50 K562.

≈ marks a conversion by molar mass, not a printed value. Like-named read-outs stand apart in the source and are kept apart here.

The term IC50 denotes the concentration that gives 50% inhibition. As a reminder, the MIC is the least concentration at which growth counts as inhibited.

T1 sequence (Q2FV99 whole entry): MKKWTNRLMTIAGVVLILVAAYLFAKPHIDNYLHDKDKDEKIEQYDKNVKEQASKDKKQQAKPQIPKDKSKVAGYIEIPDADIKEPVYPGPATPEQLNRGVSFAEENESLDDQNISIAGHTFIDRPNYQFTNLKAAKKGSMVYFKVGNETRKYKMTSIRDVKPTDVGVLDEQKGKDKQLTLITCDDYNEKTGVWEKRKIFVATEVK

Regarding `CO[C@@]1(C(=O)c2c[nH]c3cc(O)ccc23)N=C(c2c[nH]c3cc(Br)ccc23)C(=O)N1` [Compound 4, spongosoritin D], the IC50 is over 275 µM in [1], 70.9 µM in the test on A549 cell line (setting [11]) and 54.2 µM in the test with K562 cell line (setting [12]). For the same compound, the MIC in test [2] is over 128 µg/mL; in [3] (Gram-negative), over 128 µg/mL; in [4] (Gram-negative), 64 µg/mL (≈ 137 µM); in test [5], over 128 µg/mL; with S. aureus strain Newman (Gram-positive, strain Newman) it was 16 µg/mL (≈ 34.2 µM); in [6] (Gram-positive), 128 µg/mL (≈ 274 µM). Moreover, the MIC in test [7] was over 128 µg/mL; in [8] it was over 128 µg/mL; in test [9], over 128 µg/mL; in [10] (Gram-positive), 128 µg/mL (≈ 274 µM).
Turning to `O=C1NC[C@H](c2c[nH]c3cc(Br)ccc23)N[C@H]1c1c[nH]c2cc(Br)ccc12` [Compound 12, (3S, 5R)-6-dibromo-trans-3,4-dihydrohamacanthin B], the IC50 is over 263 µM in test [1]; 34.3 µM with A549 cell line (A549, read-out: IC50 A549); 9.7 µM in the test on K562 cell line (K562, read-out: IC50 K562). Moreover, the MIC was over 128 µg/mL in [2]; 8 µg/mL (≈ 16.4 µM) in test [3]; 8 µg/mL (≈ 16.4 µM) in [4]; over 128 µg/mL in [5]; 8 µg/mL (≈ 16.4 µM) in the test on S. aureus strain Newman (NEWMAN); over 128 µg/mL in test [6]. Further, the MIC in [7] is over 128 µg/mL; in test [8], over 128 µg/mL; in test [9], over 128 µg/mL; in test [10] it was 16 µg/mL (≈ 32.8 µM). For the same compound, the “Antibacterial Activity MIC, E. coli” value in test [8] was over 128 µg/mL.
On to `O=C(NCC(=O)c1c[nH]c2cc(Br)ccc12)NC(=O)c1c[nH]c2cc(O)ccc12` [Compound 6, spongocarbamide B], for which the results for the IC50 (in test [1]; in the test on A549 cell line (setting [11]); with K562 cell line (setting [12])) were 52.4 µM, over 100 µM and over 100 µM, respectively. For the same compound, the MIC is over 128 µg/mL in test [2]; over 128 µg/mL in [3] (Gram-negative); 128 µg/mL (≈ 281 µM) in test [4] (Gram-negative); over 128 µg/mL in [5]; 64 µg/mL (≈ 141 µM) with S. aureus strain Newman (Gram-positive, strain Newman); over 128 µg/mL in test [6] (Gram-positive). Also, the MIC in test [7], in test [8], in test [9] and in test [10] (Gram-positive) was over 128 µg/mL throughout.
